From patent US11759480B2, “Compositions and methods for CAR T cell therapy” (ENDOCYTE, INC., priority 2017, dated 2023) come the findings set out here.

The subject of one data set is THP-1-FRβ tumors. In words: EC17/CAR-T therapy in folate receptor-β positive acute myeloid leukemia model (Example 44). It is filed as in vivo. An excerpt: THP-1-FRβ tumors were generated by intravenous implantation of cultured cells at 5×10^6 per animal in 9 NSG mice.
Starting 11 days post tumor implantation, ˜8.3 million of GFP+4M5.3 CAR-T cells were intravenously infused into each mouse. Mice were divided into 3 groups (n=3): (1) CAR-T cell alone, (2) CAR-T cells with weekly EC17 doses at 500 nmol/kg, and (3) CAR-T cells with weekly EC17 doses at 500 nmol/kg plus sodium fluorescein rescue when needed. The first EC17 dose was given two days after CAR-T cell administration. All EC17 doses were given towards the end of day (˜3-4 PM) to allow cytokine release syndrome (CRS) to develop overnight. […] No additional sodium fluorescein rescue was given for additional EC17 dosing in Group 3. Mice were weighed and monitored for sign of health and disease development. […] Upon euthanasia, all mice were subject to gross examination for the presence of tumor masses. All visible tumor masses were excised, counted and weighed. Blood, tumor metastases (mets) and normal adjacent tissues were collected for same-day flow cytometry analysis.
Plasma was removed from predetermined volumes of whole EDTA treated blood with a 10-minute 4° C. spin at 3000×g and the resulting cell pellets were incubated with a 10-fold volume of room temperature 1×RBC lysis solution (prepared from 10× stock; Biolegend, catalog #420301) for 5 minutes, centrifuged at 400×g for 5 min. The cell pellets were washed in a 10-fold volume of ice-cold phosphate-buffered saline (PBS, pH=7.4 and filtered with a 40 μm nylon filter then pelleted again. The leukocyte cell pellets were then resuspended in a flow cytometry staining solution (1% bovine serum albumin, […] human IgG (Equitech Bio, cat #SLH56-0001), 0.9% sodium azide in PBS, pH=7.4) supplemented with both anti-mouse FcγIII/II receptor (CD16/CD32) block (clone 2.4G2; BD Bioscience, catalog #553142 at 1:100 (v/v) dilution) and anti-human Fc Block (BD Biosciences, catalog #564220 at 1:50 (v/v) dilution). Surface marker staining was performed with the addition of the following fluorochrome conjugated monoclonal antibodies added to each sample for 20 minutes on ice in the dark: anti-human CD45-APCeF780 (clone HI30, eBioscience #47-0459-42 at 1:20 (v/v) dilution), anti-human CD3-BV650 (clone SK7, BD Bioscience, catalog #563999 at 1:20 (v/v) dilution), anti-human CD137-BV650 (clone 4B4-1, BD Bioscience #564092 at 1:20 (v/v) dilution), anti-human CD8α-PECy7 (clone RPA-T8, BD Bioscience, catalog #557746 at 1:20 (v/v) dilution), anti-human CD4-Percpe710 (clone SK3, eBioscience catalog #46-0047-42 at 1:20 (v/v) dilution), anti-human CD25-PE (clone M-A251, BD Bioscience, catalog #555432 at 1:10 (v/v) dilution), anti-human CD33-PE (clone WM53, BD Bioscience, catalog #555450 at 1:5 (v/v) dilution), anti-human CD123-AF647 (clone 9F5, BD Bioscience, catalog #563599 at 1:20 (v/v) dilution). Biotinylated anti-human folate receptor-β (clone m909) was kindly provided by the Low lab at Purdue University (Arthritis Res Ther. 2011; 13(2):R59) and detected using streptavidin-eFluor660 (eBioscience, catalog #50-4317 at 1:1000 (v/v) dilution). Folic acid binding was interpreted as a measure of functional folate receptor and was determined by incubation with an Alexa Fluor conjugated folic acid which was synthesized in house. After leukocyte staining, cells were washed with PBS and resuspended in cold PBS containing 3 μM propidium idodide. Flow cytometry data was collected on the Gallios flow cytometer (Beckman Coulter, Brea, Calif.), where a minimum of 15,000 CountBright™ bead events were collected in an attempt to collect enough leukocyte events for an accurate count of infused CAR T cells in each mouse blood sample. Determination of the concentration of CAR T cells in each blood sample was calculated according to Invitrogen's instructions. Briefly, CAR T cells were identified as human CD45+ GFP+ events and easily distinguished and counted using the Kaluza™ flow cytometry software version 1.5. […]

Another data set deals with s.c. MDA-MB-231 tumors. The data set is described as follows: EC17 dose escalation cycles versus weekly dosing (Example 45). The format is in vivo, mice. The method, then:
The effect of EC17 dose de-escalation was investigated on the anti-tumor activity and the toxicity (body weight changes) of CAR-T therapy. 8.5 million frozen anti-FITC CAR-T cells were thawed and i.v. injected into mice bearing s.c. MDA-MB-231 tumors (100-200 mm3). 500 nmol/kg EC17 was administered 2 days after CAR-T injection and caused sCRS in mice. […] The first group was dosed with 500 nmol/kg EC17 weekly (SIW), whereas the second group was dosed with two EC17 escalation cycles. Each cycle lasted for 2 weeks (14 days). The dosing schedule in each cycle included 5 nmol/kg EC17 at day 1, 50 nmol/kg EC17 at day 3, 500 nmol/kg EC17 on day 5. After 9 days break, the second escalation cycle started. Tumor sizes and body weights were monitored 2-3 times per week.

On to `Nc1nc2ncc(CNc3ccc(C(=O)NC(CCC(=O)NCCNC(=S)Nc4ccc(-c5c6ccc(=O)cc-6oc6cc(O)ccc56)c(C(=O)O)c4)C(=O)O)cc3)nc2c(=O)[nH]1` (stereo not drawn) [EC17, FITC-Folate], for which, in the data set with THP-1-FRβ tumors (500 nmol/kg SIW for 4 weeks, day 34 post CAR-T infusion), the “GFP+ leukemic cells in blood” value is on record as “nearly undetectable in the blood”. In the data set with THP-1-FRβ tumors (morning after first EC17 dose 500 nmol/kg, ~8.3 million CAR-T), the CRS grade is listed as roughly 3 grade. The “persistence of anti-leukemia activity post CAR T cell infusion” value with THP-1-FRβ tumors (mouse, in vivo) is listed as 47 days. Moreover, the “EC17-treated mice with minimum tumor load at collection” value in the data set with THP-1-FRβ tumors (weekly 500 nmol/kg, +/- one-time sodium fluorescein rescue) is given as “five out of the 6”. The “CAR T cell phenotype” value with THP-1-FRβ tumors (weekly injections of EC17) is listed as “central memory/effector memory phenotype”. Besides, the “body weight loss of escalation group” value in the data set on s.c. MDA-MB-231 tumors (cycles of 5, 50, 500 nmol/kg at day 1, 3, 5) is listed as “much less than that of the EC17 SIW group”.

With `O=C([O-])c1ccccc1-c1c2ccc(=O)cc-2oc2cc([O-])ccc12.[Na+].[Na+]` [sodium fluorescein], the “recovery from CRS” value in the data set on THP-1-FRβ tumors (6 μmol/kg, Group 3) is “completely recovered”. Also, in the data set with THP-1-FRβ tumors (mouse #10, rescue after first EC17 dose), the “CAR T cell functionality after rescue” value is recorded as “CAR T cell functionality was preserved”. Besides, the “rescue from sCRS” value with s.c. MDA-MB-231 tumors (6 umol/kg) is “successfully rescued”.
